In patent US20100048462A1, “TRUNCATED PTH PEPTIDES WITH A CYCLIC CONFORMATION” (Zealand Pharma A/S, priority 2006, published 2010):
Bridge positions count the residues as written; N and C are the ends. Square brackets hold non-standard residues; d marks the D form. Peptide text beside a SMILES is read from it. hArg = N=C(N)NCCCC[C@H](N)C(=O)O; Ac5c = NC1(C(=O)O)CCCC1; Aib = CC(C)(N)C(=O)O

Target: CYP2D6 (Homo sapiens, UniProt P10635)
Experiment: CYP2D6 inhibition in pooled human liver microsomes
Format: in vitro ADME
Design: Pooled human liver microsomes (HLM, final concentration 0.05 mg protein/mL); tissue BD Biosciences 452161; host or cells: pooled human liver microsomes
In short: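 Pooled HLM (0.05 mg/mL) in 0.1 M KPi pH 7.4 with 5 μM dextromethorphan and 10 μM test compound, preincubated 5 min at 37 °C, then started with NADPH-regenerating system for 5 min. Dextrorphan quantified by LC/MS/MS; activity expressed as % of vehicle; <70% considered significant.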

CYP2D6, sequence (P10635 whole entry): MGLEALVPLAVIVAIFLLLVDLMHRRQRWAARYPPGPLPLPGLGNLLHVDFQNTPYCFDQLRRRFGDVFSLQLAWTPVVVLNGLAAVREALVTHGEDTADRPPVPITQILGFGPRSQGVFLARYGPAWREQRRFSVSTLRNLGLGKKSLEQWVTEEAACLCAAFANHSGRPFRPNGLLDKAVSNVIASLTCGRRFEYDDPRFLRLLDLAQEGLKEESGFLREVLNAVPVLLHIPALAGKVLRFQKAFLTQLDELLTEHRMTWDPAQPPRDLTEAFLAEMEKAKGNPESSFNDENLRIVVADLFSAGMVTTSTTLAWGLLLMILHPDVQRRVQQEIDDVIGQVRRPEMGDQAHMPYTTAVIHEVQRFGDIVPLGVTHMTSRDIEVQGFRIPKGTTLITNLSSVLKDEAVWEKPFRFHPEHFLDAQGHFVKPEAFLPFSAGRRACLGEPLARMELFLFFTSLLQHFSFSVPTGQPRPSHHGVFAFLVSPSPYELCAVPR

In the case of CC[C@H](C)[C@H](NC(=O)[C@H](CCC(=O)O)NC(=O)C(C)(C)NC(=O)[C@@H](NC(=O)C1(N)CCCC1)C(C)C)C(=O)N[C@@H](CCC(N)=O)C(=O)N[C@@H](CC(C)C)C(=O)N[C@@H](CC(C)C)C(=O)N[C@@H](Cc1c[nH]cn1)C(=O)N[C@@H](CCC(N)=O)C(=O)N[C@@H](CCCCNC(=N)N)C(=O)N[C@@H](C)C(=O)N[C@H]1CCCCNC(=O)C[C@@H](C(N)=O)NC(=O)[C@H](CC(N)=O)NC(=O)[C@H](CC(C)C)NC(=O)[C@H](Cc2c[nH]c3ccccc23)NC1=O [SEQ ID NO: 19, H-Ac5c-Val-Aib-Glu-Ile-Gln-Leu-Leu-His-Gln-Har-Ala-Lys( )-Trp-Leu-Asn-Asp( )-NH2] (H-[Ac5c]V[Aib]EIQLLHQ[hArg]AKWLND-NH2; lactam 13-17), the “effect on CYP2D6 activity in words” value is reported as “absence of any inhibitory effect on CYP2D6 activity” and the “CYP2D6 activity (% of vehicle)” value (10 μM compound, dextrorphan formation rate) is reported as 90 % of vehicle.
